Reference: US20250281624A1, “METHODS AND COMPOSITIONS FOR TREATING CHRONIC INFLAMMATORY INJURY, METAPLASIA, DYSPLASIA AND CANCERS OF EPITHELIAL TISSUES” (University of Houston System, priority 2021, published 2025)

How the values were obtained:
Type in all cases: cell-based, human
[1] = tested on: BE1 stem cells; assay: Small molecule screen and dose-response in 384-well plates, BE1 stem cells
[2] = tested on: BE1 and normal esophageal stem cells; assay: Co-cultures of BE1 and normal esophageal stem cells; conditions: in combination with ponatinib
Source text: FIGS. 6a-g. Drug development for precursor lesions. FIG. 6a. […] FIG. 6b. […] FIG. 6c. Dose-response curves of candidate drug (CEP-18770). FIG. 6d. […] FIG. 6e. […] FIG. 6f. […] FIG. 6g.
Small molecule screens against precursor stem cells. Given that Barrett's esophagus is an essential precursor for EAC, the inventors adapted BE1 stem cells to high-throughput screening platforms to identify proof-of-concept leads for preemptive therapies.

[3] = tested on: normal esophageal stem cells; assay: Small molecule screen and dose-response in 384-well plates, normal esophageal stem cells

| IC50 ([1]; in combination with ponatinib, read-out: IC50 for eliminating BE1 stem cells) | Structure (SMILES) | Effect on normal esophageal stem cells in co-culture ([2]; co-culture with BE1 stem cells) | Effect on BE1 cells in co-culture ([2]; co-culture with normal esophageal stem cells) | Impact on normal esophageal stem cells ([3]; in combination with ponatinib) | Growth of BE1 stem cells ([1]; single agent) | Growth of normal esophageal stem cells ([3]; single agent, screens of stem cells from eight cases) |
| --- | --- | --- | --- | --- | --- | --- |
| < 1 nM | CN[C@@H](C)C(=O)N[C@H]1CCCC[C@H]2CC[C@@H](C(=O)N[C@@H](c3ccccc3)c3cn(CCCCc4ccc(CCCCn5cc([C@@H](NC(=O)[C@@H]6CC[C@@H]7CCCC[C@H](NC(=O)[C@H](C)NC)C(=O)N76)c6ccccc6)nn5)cc4)nn3)N2C1=O [SM-164] | promotes the expansion | selectively eliminates the BE1 cells | minimal impact |  |  |
|  | Cc1ccc(C(=O)Nc2ccc(CN3CCN(C)CC3)c(C(F)(F)F)c2)cc1C#Cc1cnc2cccnn12 [ponatinib, 3-[2-(Imidazo[1,2-b]pyridazin-3-yl)ethynyl]-4-methyl-N-[4-(4-methylpiperazin-1-ylmethyl)-3-(trifluoromethyl)phenyl]benzamide] |  |  |  | marginally inhibiting the growth | best of these esophageal stem cell “promoters” |
